From ChEMBL document CHEMBL1148343, “Fragment-based drug discovery” (J Med Chem, 2004)

Tests used:
Stromelysin-1 [1] = target: T1, Stromelysin-1 (Homo sapiens, UniProt P08254)
Description: Inhibition of Matrix Metalloprotease-3 (MMP-3)

Acetylcholinesterase [2] = target: Acetylcholinesterase (Mus musculus, UniProt P21836)
Description: Dissociation constant towards Acetylcholinesterase in mouse

[3] = Half life was determined; format: ADME; conditions: rat
Thymidylate synthase [4] = target: Thymidylate synthase (Homo sapiens, UniProt P04818); experiment: Tested for binding affinity towards thymidylate synthase
[5] = target: Adenylosuccinate synthetase isozyme 2 (Homo sapiens, UniProt P30520)
Adenylosuccinate synthetase isozyme 2, sequence (P30520 whole entry): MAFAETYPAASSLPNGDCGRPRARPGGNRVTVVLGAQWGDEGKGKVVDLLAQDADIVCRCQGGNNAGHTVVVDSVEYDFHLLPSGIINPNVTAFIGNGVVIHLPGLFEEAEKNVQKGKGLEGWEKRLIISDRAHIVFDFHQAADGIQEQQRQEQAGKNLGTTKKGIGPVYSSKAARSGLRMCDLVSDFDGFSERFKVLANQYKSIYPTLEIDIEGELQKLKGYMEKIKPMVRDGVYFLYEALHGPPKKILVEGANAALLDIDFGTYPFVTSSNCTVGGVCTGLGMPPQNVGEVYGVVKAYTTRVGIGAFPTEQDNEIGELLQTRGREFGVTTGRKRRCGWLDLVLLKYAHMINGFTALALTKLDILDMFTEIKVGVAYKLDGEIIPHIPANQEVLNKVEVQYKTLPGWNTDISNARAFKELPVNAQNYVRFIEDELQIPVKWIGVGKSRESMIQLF
Description: Inhibitory concentration against Adenylosuccinate synthetase

Caspase-3 = Caspase-3 (Homo sapiens, UniProt P42574); experiment: Binding affinity against Caspase-3
Caspase-3, sequence (P42574 29-175 limits assumed): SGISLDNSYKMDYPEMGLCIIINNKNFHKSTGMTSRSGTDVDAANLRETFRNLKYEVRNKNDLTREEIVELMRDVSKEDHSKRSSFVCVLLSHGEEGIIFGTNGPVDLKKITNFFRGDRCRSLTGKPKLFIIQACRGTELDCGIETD
Caspase-3, sequence (P42574 176-277 limits assumed): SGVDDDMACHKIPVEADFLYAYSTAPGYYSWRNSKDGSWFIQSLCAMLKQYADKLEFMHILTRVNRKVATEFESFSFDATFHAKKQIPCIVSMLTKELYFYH

[6] = Inhibition of Interleukin-2 receptor
[7] = Oral bioavailability was determined; Not orally available; format: ADME, organism-based; conditions: in vivo
Nucleic Acid = experiment: Dissociation constant towards Mutant U1061A RNA; format: nucleic-acid assay
[8] = target: Urokinase-type plasminogen activator (Homo sapiens, UniProt P00749)
Description: Binding affinity towards Urokinase-type plasminogen activator

[9] = target: Proto-oncogene tyrosine-protein kinase Src (Homo sapiens, UniProt P12931); experiment: Inhibition of c-Src tyrosine kinase
Proto-oncogene tyrosine-protein kinase Src, sequence (P12931 2-536 limits assumed): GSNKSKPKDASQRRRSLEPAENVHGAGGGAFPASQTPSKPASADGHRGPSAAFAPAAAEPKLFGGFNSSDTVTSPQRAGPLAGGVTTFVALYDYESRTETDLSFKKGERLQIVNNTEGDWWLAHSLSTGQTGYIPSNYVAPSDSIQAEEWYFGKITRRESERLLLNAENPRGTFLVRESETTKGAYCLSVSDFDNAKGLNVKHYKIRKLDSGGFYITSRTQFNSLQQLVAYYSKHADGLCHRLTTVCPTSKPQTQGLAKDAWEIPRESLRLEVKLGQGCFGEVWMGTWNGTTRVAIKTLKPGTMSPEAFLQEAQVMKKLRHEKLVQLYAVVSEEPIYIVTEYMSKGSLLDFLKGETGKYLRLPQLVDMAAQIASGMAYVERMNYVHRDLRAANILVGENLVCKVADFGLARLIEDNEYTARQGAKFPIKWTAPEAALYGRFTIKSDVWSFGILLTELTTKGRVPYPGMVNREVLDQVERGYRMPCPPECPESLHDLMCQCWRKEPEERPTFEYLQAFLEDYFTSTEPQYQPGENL

Bcl-2-like protein 1 = Bcl-2-like protein 1 (Homo sapiens, UniProt Q07817); experiment: Inhibitory concentration against B-Cell Lymphoma xL (Bcl-xL) Bak-peptide binding region; format: functional
Bcl-2-like protein 1, sequence (Q07817 whole entry): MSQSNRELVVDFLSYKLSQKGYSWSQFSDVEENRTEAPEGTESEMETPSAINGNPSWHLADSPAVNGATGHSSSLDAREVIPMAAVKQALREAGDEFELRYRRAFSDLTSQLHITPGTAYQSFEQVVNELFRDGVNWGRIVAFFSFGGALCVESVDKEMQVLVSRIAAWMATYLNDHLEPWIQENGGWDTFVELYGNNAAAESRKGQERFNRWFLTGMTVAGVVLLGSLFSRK

[10] = target: T2, Glycogen phosphorylase, liver form (Mus musculus, UniProt Q9ET01)
T2 sequence (Q9ET01 whole entry): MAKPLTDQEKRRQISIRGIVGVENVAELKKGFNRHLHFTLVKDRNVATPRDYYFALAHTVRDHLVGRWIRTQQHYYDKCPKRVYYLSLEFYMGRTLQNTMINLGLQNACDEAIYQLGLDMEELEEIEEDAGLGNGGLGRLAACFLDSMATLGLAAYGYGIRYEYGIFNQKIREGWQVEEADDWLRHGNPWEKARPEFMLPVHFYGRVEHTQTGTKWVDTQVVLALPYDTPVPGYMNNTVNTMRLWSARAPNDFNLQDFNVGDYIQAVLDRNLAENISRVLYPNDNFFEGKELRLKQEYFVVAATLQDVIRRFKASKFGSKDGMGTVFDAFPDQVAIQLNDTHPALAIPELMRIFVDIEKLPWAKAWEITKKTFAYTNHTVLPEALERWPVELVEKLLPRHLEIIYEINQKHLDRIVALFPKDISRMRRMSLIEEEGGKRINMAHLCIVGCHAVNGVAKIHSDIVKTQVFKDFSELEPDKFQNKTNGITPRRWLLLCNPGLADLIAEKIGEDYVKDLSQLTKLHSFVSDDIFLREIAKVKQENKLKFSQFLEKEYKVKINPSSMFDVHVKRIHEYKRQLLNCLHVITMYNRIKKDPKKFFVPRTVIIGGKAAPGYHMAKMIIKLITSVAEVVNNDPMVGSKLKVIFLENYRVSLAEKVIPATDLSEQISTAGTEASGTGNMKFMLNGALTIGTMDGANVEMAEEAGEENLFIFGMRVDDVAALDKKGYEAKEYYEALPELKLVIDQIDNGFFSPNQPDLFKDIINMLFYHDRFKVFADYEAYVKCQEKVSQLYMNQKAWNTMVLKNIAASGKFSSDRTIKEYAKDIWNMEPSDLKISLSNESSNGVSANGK
Description: Inhibitory concentration against glycogen phosphorylase

Stromelysin-1 [11] = target: T1, Stromelysin-1; experiment: Dissociation constant for Matrix Metalloprotease-3 (MMP-3)
[12] = Dissociation constant against FK506 binding protein
[13] = target: Mitogen-activated protein kinase 10 (Homo sapiens, UniProt P53779); experiment: Affinity for c-Jun N-terminal kinase 3
Mitogen-activated protein kinase 10, sequence (P53779 whole entry): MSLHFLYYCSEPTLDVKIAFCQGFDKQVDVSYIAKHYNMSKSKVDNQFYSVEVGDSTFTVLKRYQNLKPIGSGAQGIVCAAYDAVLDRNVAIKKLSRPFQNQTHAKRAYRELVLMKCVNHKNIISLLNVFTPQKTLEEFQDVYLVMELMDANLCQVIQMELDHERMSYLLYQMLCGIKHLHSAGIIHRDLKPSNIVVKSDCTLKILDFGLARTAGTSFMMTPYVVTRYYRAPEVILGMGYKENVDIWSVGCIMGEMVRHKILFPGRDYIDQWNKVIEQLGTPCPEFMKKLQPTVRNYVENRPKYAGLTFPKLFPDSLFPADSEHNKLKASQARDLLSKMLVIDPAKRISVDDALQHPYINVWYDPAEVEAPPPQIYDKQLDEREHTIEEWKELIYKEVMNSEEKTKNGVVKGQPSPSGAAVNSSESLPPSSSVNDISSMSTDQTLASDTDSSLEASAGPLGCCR

[14] = target: Neuraminidase (Influenza A virus (A/Puerto Rico/8/1934(H1N1)), UniProt P03468)
Neuraminidase (Influenza A virus (A/Puerto Rico/8/1934(H1N1)), UniProt P03468), sequence (P03468 whole entry, the tested form may be a part): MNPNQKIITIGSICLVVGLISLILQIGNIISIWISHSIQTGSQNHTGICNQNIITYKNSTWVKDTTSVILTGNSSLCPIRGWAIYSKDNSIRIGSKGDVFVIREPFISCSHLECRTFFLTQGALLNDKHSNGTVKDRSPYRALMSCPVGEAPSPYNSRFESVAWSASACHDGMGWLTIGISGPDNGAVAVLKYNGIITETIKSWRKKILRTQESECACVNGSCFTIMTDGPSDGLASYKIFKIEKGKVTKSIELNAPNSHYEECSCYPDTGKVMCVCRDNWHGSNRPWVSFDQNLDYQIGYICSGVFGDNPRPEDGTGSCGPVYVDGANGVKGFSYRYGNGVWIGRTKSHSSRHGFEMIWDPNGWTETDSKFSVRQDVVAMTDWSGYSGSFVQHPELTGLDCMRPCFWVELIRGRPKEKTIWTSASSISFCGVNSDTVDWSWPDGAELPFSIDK
Description: Inhibition of influenza A viral enzyme neuraminidase

Human papillomavirus [15] = experiment: Inhibitory concentration against DNA-binding domain of the human papillomavirus protein E2; format: functional
Human papillomavirus [16] = experiment: Dissociation constant against DNA-binding domain of the human papillomavirus protein E2; format: functional
Acetylcholinesterase [17] = target: Acetylcholinesterase (Rattus norvegicus, UniProt P37136); experiment: Inhibitory concentration against Acetylcholinesterase in rat brain; format: tissue-based
Acetylcholinesterase (Rattus norvegicus, UniProt P37136), sequence (P37136 whole entry): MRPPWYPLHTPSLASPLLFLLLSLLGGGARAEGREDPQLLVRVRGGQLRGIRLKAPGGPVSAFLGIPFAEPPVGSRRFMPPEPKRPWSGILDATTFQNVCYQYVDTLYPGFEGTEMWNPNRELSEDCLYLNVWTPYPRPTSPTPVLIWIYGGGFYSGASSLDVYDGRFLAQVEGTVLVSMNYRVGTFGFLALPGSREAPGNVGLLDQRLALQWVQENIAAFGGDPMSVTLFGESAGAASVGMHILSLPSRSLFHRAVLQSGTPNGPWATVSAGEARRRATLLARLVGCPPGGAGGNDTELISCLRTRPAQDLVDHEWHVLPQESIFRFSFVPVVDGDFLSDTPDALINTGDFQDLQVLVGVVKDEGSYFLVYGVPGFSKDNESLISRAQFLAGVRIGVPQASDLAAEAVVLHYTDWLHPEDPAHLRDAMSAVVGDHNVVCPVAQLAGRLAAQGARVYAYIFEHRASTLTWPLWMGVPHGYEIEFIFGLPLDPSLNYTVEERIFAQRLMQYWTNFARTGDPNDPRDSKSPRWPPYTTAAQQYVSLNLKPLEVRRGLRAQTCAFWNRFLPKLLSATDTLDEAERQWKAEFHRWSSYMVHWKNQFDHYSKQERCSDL

[18] = Dissociation constant against Erythromycin-Resistance Methylase AM
[19] = target: Intercellular adhesion molecule (ICAM-1), Integrin alpha-L/beta-2 (Homo sapiens, UniProt P05107+P20701)
Description: Inhibition of Leukocyte function associated antigen 1 (LFA-1)

[20] = Binding affinity against Erythromycin-Resistance Methylase AM
[21] = Oral bioavailability; format: ADME, organism-based; conditions: eutheria, in vivo
Thymidylate synthase [22] = target: Thymidylate synthase (Lactobacillus casei, UniProt P00469)
Thymidylate synthase (Lactobacillus casei, UniProt P00469), sequence (P00469 whole entry): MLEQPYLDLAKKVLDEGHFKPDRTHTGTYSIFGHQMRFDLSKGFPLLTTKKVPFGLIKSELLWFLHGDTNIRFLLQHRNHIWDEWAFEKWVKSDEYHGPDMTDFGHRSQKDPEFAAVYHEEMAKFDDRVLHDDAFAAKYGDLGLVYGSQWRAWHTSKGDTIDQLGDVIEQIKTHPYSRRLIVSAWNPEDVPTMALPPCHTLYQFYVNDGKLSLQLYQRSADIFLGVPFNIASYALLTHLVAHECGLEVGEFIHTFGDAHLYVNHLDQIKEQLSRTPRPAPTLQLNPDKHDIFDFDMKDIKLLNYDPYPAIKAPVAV

Interstitial collagenase = Interstitial collagenase (Homo sapiens, UniProt P03956)
Interstitial collagenase, sequence (P03956 whole entry): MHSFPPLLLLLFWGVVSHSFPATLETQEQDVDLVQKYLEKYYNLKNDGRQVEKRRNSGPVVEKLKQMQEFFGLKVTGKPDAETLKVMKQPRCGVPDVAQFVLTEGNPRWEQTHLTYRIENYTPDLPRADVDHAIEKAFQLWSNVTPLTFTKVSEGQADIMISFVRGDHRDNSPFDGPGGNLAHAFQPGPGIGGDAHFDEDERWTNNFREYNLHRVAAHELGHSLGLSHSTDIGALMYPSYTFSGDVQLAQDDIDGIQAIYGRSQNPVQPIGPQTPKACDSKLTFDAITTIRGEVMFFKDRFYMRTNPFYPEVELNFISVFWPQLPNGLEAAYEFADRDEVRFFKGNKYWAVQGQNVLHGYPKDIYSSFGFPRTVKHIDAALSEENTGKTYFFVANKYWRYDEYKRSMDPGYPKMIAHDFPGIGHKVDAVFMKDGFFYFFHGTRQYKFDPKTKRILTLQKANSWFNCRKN
Description: Inhibition of Matrix Metalloprotease-1 (MMP-1)

Adenosine deaminase = Adenosine deaminase (Homo sapiens, UniProt P00813)
Description: Binding affinity towards adenosine deaminase

Collagenase 3 = Collagenase 3 (Homo sapiens, UniProt P45452); experiment: Inhibition of Matrix Metalloprotease-13 (MMP-13)
[23] = target: Cyclin-dependent kinase 2 (Homo sapiens, UniProt P24941); experiment: Inhibition of Cyclin-Dependent Kinase 2
[24] = target: Tyrosine-protein phosphatase non-receptor type 1 (Homo sapiens, UniProt P18031)
Description: Dissociation constant for Protein-tyrosine phosphatase 1B

[25] = target: Matrix metalloproteinase-9 (Homo sapiens, UniProt P14780); experiment: Inhibition of gelatinase B, matrix metalloprotease-9 (MMP-9)

T1 sequence (P08254 whole entry): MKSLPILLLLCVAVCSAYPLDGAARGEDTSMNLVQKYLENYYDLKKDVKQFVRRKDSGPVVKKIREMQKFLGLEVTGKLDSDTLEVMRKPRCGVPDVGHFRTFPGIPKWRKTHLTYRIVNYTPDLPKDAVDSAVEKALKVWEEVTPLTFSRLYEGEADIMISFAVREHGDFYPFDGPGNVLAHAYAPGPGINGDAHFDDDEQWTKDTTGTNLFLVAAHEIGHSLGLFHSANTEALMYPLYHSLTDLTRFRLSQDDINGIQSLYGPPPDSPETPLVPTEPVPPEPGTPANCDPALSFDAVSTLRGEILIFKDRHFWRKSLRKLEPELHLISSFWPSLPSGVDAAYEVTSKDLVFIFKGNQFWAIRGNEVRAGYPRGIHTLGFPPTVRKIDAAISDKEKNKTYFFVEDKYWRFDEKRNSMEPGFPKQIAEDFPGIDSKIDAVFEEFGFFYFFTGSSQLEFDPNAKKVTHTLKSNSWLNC
Thymidylate synthase (Homo sapiens, UniProt P04818), sequence (P04818 whole entry): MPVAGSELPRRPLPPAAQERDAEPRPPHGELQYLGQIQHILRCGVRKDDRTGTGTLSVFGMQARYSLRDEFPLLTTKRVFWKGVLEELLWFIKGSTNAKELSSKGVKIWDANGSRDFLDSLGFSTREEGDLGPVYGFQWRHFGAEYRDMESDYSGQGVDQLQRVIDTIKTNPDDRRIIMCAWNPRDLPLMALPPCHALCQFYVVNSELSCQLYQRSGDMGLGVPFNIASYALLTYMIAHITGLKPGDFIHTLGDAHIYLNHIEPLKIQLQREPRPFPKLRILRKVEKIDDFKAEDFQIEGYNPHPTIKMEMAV
Description for Carbonic anhydrase: Inhibitory concentration against carbonic anhydrase

Compound CONC(=O)c1c(OCCOc2ccc(-c3ccc(C#N)cc3)cc2)ccc2ccccc12 has an IC50 (Stromelysin-1 [1]) of 0.34 µM.
Work on CC[N+](C)(CC)CCC[n+]1c(-c2ccccc2)c2cc(N)ccc2c2ccc(N)cc21 [PROPIDIUM] yielded a Kd (Acetylcholinesterase [2]) of 1.1 µM.
In the case of CC(=O)N1CCN(C(=O)/C=C/c2ccc(Sc3ccc4[nH]ccc4c3)c(Cl)c2)CC1, the half-life [3] is reported as 4.7 h.
Cc1ccc(S(=O)(=O)N2CCC[C@@H]2C(=O)O)cc1 gave a Ki (Thymidylate synthase [4]) of 1100 µM.
Compound O=C1NC(=O)[C@@]2(N1)O[C@H](COP(=O)(O)O)[C@@H](O)[C@H]2O [PHOSPHOHYDANTOCIDIN] has an IC50 [5] of 0.675 µM.
NS(=O)(=O)c1ccc(CSCc2ccc(C(=O)O)cc2)cc1 showed an IC50 (Carbonic anhydrase) of 0.084 µM.
For CNS(=O)(=O)c1ccc(O)c(C(=O)O)c1, the Ki (Caspase-3) was greater than 1000 µM.
CC(C)C[C@@H](NC(=N)N)C(=O)NCC(=O)N1CCC(c2cc(-c3ccc(OCc4ccc(C(=O)O)o4)c(Cl)c3Cl)nn2C)CC1 showed an IC50 [6] of 0.06 µM.
With N=C(N)c1ccc2cccc(Nc3ncccn3)c2c1 the Bioavailabiility [7] was “Not orally available”.
Work on O=C(O)c1ccc2nc(O)c(O)nc2c1 yielded a Kd (Nucleic Acid) greater than 100 µM.
Nc1ccc2cccc(O)c2n1 showed a Ki [8] of 56 µM.
Compound CO/N=C/c1ccc(O)c(O)c1 has an IC50 [9] of 41 µM.
Work on CN(C)CCC=C(c1ccc(Cl)cc1)c1ccc(Cl)cc1 yielded an IC50 (Bcl-2-like protein 1) of 180 µM.
For CCCNC(=O)c1ccc2nc(O)c(O)nc2c1, the Kd (Nucleic Acid) was greater than 100 µM.
CN(C)C(=O)[C@H](O)[C@H](Cc1ccccc1)NC(=O)c1cc2cc(Cl)ccc2[nH]1 showed an IC50 [10] of 0.13 µM.
Work on N#CCc1cccc(-c2ccc(O)cc2)c1 yielded a Kd (Stromelysin-1 [11]) of 20 µM.
O=CN(O)CC(=O)O [HADACIDIN] showed an IC50 [5] of 3.5 µM.
In the case of O=C(Nc1ccccc1O)c1ccc(O)cc1, the Kd [12] is reported as 800 µM.
O=C(Nc1cccc(C(F)(F)F)c1)c1csc(-c2ccncc2)n1 gave a Ki [13] of 13 µM.
CC(=O)N[C@H]1[C@H](N)C=C(C(=O)O)C[C@@H]1N showed an IC50 [14] of 31 µM.
O=C(O)/C=C/C=C/c1ccc(Oc2ccccc2)cc1 showed an IC50 (Human papillomavirus [15]) of 75 µM and a Kd (Human papillomavirus [16]) of 350 µM.
O=C(O)CCCc1ccc(Oc2ccccc2)cc1 showed a Kd (Human papillomavirus [16]) of 1900 µM.
In the case of C1=CC2N=C3CCCCC3=C(NCCCCCCCNc3c4c(nc5ccccc35)CCCC4)C2C=C1 (stereo not drawn), the IC50 (Acetylcholinesterase [17]) is reported as 0.0004 µM.
Work on O=C(Nc1ccc(O)cc1)c1ccc(O)cc1 yielded a Kd [12] of 100 µM.
For CSc1nc(N)nc(N)n1, the Kd [18] was 1000 µM.
CC(=O)N1CCN(C(=O)/C=C/c2cccc([N+](=O)[O-])c2)CC1 gave an IC50 [19] of 80 µM.
With CN(C)CC/C=C(\c1ccc(Cl)cc1)c1ccc(CCCc2ccc(/C(=C\CCN(C)C)c3ccc(Cl)cc3)cc2)cc1 the IC50 (Bcl-2-like protein 1) was 10 µM.
In the case of CC(=O)N[C@@H]1[C@@H](N)CC(C(=O)O)=C[C@H]1NCCCc1ccccc1, the IC50 [14] is reported as 1.64 µM.
Nc1nc(NC2Cc3ccccc3C2)nc(N2CCCCC2)n1 gave a Ki [20] of 8 µM.
Nc1ccc2cccc(Nc3ncccn3)c2n1 showed a bioavailability [21] of 38%.
With O=C(O)CCNC(=O)[C@H]1CCCN1S(=O)(=O)c1ccc(C(=O)N[C@@H](CCC(=O)O)C(=O)O)cc1 the Ki (Thymidylate synthase [22]) was 0.33 µM.
Work on CCn1c2ccccc2c2cc(/C=N\OC)ccc21 yielded an IC50 [9] of 40 µM.
For Cc1cc(C)c(N(Cc2ccccc2)S(=O)(=O)c2ccc(OCCNC(=O)c3cc4ccccc4o3)cc2)c(C(=O)NO)c1, the IC50 (Interstitial collagenase) was greater than 10 µM.
COC(=O)[C@@H]1CCCCN1C(=O)C(=O)c1cc(OC)c(OC)c(OC)c1 showed a Kd [12] of 2 µM.
For O=C(O)/C=C/C=C/c1cccc(Oc2cc(Cl)cc(Cl)c2)c1, the IC50 (Human papillomavirus [15]) was 10 µM.
Work on CCn1c2ccccc2c2cc(/C=N\OCCO/N=C/c3ccc(O)c(O)c3)ccc21 yielded an IC50 [9] of 0.064 µM.
In the case of O=CN(O)[C@@H](CCCN1C(=O)N[C@@]2(O[C@H](COP(=O)(O)O)[C@@H](O)[C@H]2O)C1=O)C(=O)O, the IC50 [5] is reported as 0.043 µM.
CCC(CC)N[C@@H]1C=C(C(=O)O)C[C@H](N)[C@H]1NC(C)=O showed an IC50 [14] of 0.085 µM.
O=C(O)CC[C@H](NC(=O)c1ccc(S(=O)(=O)N2CCC[C@@H]2C(=O)O)cc1)C(=O)O gave a Ki (Thymidylate synthase [22]) of 24 µM.
O=C(Nc1ccccc1)c1c(Nc2ccccc2)[nH]c(=O)[nH]c1=O showed a Ki [13] of 0.72 µM.
Work on NCC[C@@H](NC(=O)c1ccco1)C(=O)N1CCNCC1 yielded a Kd (Nucleic Acid) greater than 100 µM.
In the case of c1ccc(NCCCCCCCNc2c3c(nc4ccccc24)CCCC3)cc1, the IC50 (Acetylcholinesterase [17]) is reported as 0.39 µM.
NC(N)=Nc1nc(-c2ccc(CNc3cc4ccccc4[nH]3)s2)cs1 gave a Ki (Adenosine deaminase) of 1.2 µM.
With O=C(NCCCCN1CCOCC1)c1cc2ccccc2o1 the IC50 (Interstitial collagenase) was greater than 10 µM and the IC50 (Collagenase 3) was 10 µM.
Oc1ccc(-c2ccccc2)cc1 gave a Kd (Stromelysin-1 [11]) of 280 µM.
For NS(=O)(=O)c1ccc(N/N=C2\C(=O)Nc3ccc(Cl)cc32)cc1 [GW280670X], the IC50 [23] was 0.03 µM.
In the case of O=C(O)c1ccc(-c2cc(Cl)cc(Cl)c2)cc1, the IC50 (Human papillomavirus [15]) is reported as 150 µM and the Kd (Human papillomavirus [16]) is reported as 60 µM.
With O=C(O)c1cc2ccccc2s1 the Kd [24] was greater than 1000 µM.
In the case of NC(=O)CSCc1ccc(S(N)(=O)=O)cc1, the IC50 (Carbonic anhydrase) is reported as 0.77 µM.
In the case of COc1cc(C(=O)C(=O)N2CCCC[C@H]2C(=O)OCCCOc2ccc(C(=O)Nc3ccc(O)cc3)cc2)cc(OC)c1OC, the Kd [12] is reported as 0.019 µM.
O=C(NCCOCCOCCNC(=O)c1cc2cc(Cl)ccc2[nH]1)c1cc2cc(Cl)ccc2[nH]1 gave an IC50 [10] of 0.006 µM.
In the case of NCC[C@@H](NC(=O)c1ccc(-c2cccc(NC(=O)c3ccc4nc(O)c(O)nc4c3)c2)o1)C(=O)N1CCNCC1, the Kd (Nucleic Acid) is reported as 6.5 µM.
Work on COCCNC(=O)c1cc2cc(Cl)ccc2[nH]1 yielded an IC50 [10] of 12.5 µM.
For NCc1nc2ccc(NCc3ccccc3OCc3ccccc3)cc2[nH]1, the IC50 [25] was 13 µM.
Compound COc1ccc(-c2cc(C3CCN(C(=O)CNC(=O)[C@@H](CC(C)C)N=C(N)N)CC3)n(C)n2)c(Cl)c1Cl has an IC50 [6] of 3 µM.
